Reference: patent US20020137929A1, “1 - (3-heterocyclylphenyl) isothiourea, -isourea, -guanidine and -amidine herbicidal agents” (Intellectual Property Department, BASF Aktiengesellschaft, priority 1998, published 2002)

What was measured:
CASOB (Sicklepod) = test: Postemergence herbicidal evaluation; format: in vivo, Cassia obtusifolia; conditions: postemergence
Procedure, shortened: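 ~2-wk seedlings; postemergence spray, 40 psi; vehicle 1:1 acetone:water + 0.5% Tween 20; rate ≈0.0156–0.500 kg/ha; greenhouse hold; scored 4–5 wk after treatment, 0–9 scale vs control; repeat tests averaged.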

ORYSAT (Rice, Tebonnet) = test: Preemergence herbicidal evaluation; format: in vivo, Oryza sativa, (L.) Tebonnet; conditions: rated 4-5 weeks after treatment; for ORYSAT rating: preemergence, 0-9 scale
Procedure, shortened: (§1)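 Herbicidal effect scored visually, 0-9, at 4 to 5 weeks against a control; compound applied preemergence by aqueous acetone spray to seeded soil at about 0.0156 to 0.500 kg/ha.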

MOOVA (Monochoria) = test: Postemergence weed control under flooded paddy conditions; format: in vivo, Monochoria vaginalis; conditions: postemergence weeds
Procedure, shortened: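 Herbicidal effect is judged by eye on a 0–9 scale versus control, 3–4 weeks after dosing. Dosing is into flood water kept 1.5–3 cm over the soil, at about 0.0313–0.500 kg/ha in aqueous/acetone 50/50 v/v, on 3–5 cm weeds and 1.5–2.5-leaf rice seedlings.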

[1] = system: SAGPY (Arrowhead (Pygmaea)); test: Preemergence weed control under flooded paddy conditions; format: in vivo, Sagittaria pygmaea; conditions: rated 3-4 weeks after treatment
Procedure, shortened: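 Ratings on a 0-9 visual scale cover stand, vigor, malformation, size, chlorosis and overall appearance relative to a control, taken three to four weeks post-treatment. Application was into flood water over freshly sown silt loam at roughly 0.0313 to 0.500 kg/ha.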

[2] = system: GLXMAW (Soybean, Williams); test: Preemergence herbicidal evaluation; format: in vivo, Glycine max, (L.) Merr. cv Williams; conditions: rated 4-5 weeks after treatment; for GLXMAW rating: preemergence, 0-9 scale
Procedure, shortened: as §1

[3] = system: TRZAWR (Wheat, Winter, cv Riband); test: Preemergence herbicidal evaluation; format: in vivo, Triticum aestivum; conditions: rated 4-5 weeks after treatment; for TRZAWR rating: preemergence, 0-9 scale
Procedure, shortened: as §1

[4] = rate 0.0313 kg/ha, 3-4 weeks after treatment
[5] = rate 0.0625 kg/ha, 3-4 weeks after treatment
[6] = rate 0.1250 kg/ha, 3-4 weeks after treatment
[7] = rate 0.2500 kg/ha, 3-4 weeks after treatment
[8] = Rate 0.0313 kg/ha, rated 3 to 4 weeks after treatment
[9] = Rate 0.0625 kg/ha, rated 3 to 4 weeks after treatment
[10] = Rate 0.1250 kg/ha, rated 3 to 4 weeks after treatment
[11] = Rate 0.2500 kg/ha, rated 3 to 4 weeks after treatment

COC(=O)CN1C(=O)CSC1=Nc1cc(-n2c(=O)cc(C(F)(F)F)n(C)c2=O)c(F)cc1Cl [Compound 17, Methyl 2-{{2-chloro-5-[3,6-dihydro-3-methyl-2,6-dioxo-4-(trifluoromethyl)-1(2H)-pyrimidinyl]-4-fluorophenyl}imino}-4-oxo-3-thiazolidineacetate]
4.0: Herbicidal rating SAGPY ([1]; 0.1250 kg/ha) | Herbicidal rating SAGPY ([1]; 0.2500 kg/ha)
3.3: ORYSAT preemergence herbicidal rating (ORYSAT (Rice, Tebonnet); rate 0.2500 kg/ha) | GLXMAW preemergence herbicidal rating ([2]; rate 0.2500 kg/ha)
7.0: TRZAWR preemergence herbicidal rating ([3]; rate 0.2500 kg/ha) | TRZAWR preemergence herbicidal rating ([3]; rate 0.5000 kg/ha)
2.0: TRZAWR preemergence herbicidal rating ([3]; rate 0.1250 kg/ha)
6.5: ORYSAT preemergence herbicidal rating (ORYSAT (Rice, Tebonnet); rate 0.5000 kg/ha) | GLXMAW preemergence herbicidal rating ([2]; rate 0.5000 kg/ha)
1.0: CASOB herbicidal rating (CASOB (Sicklepod); rate 0.0313 kg/ha) | CASOB herbicidal rating (CASOB (Sicklepod); rate 0.0625 kg/ha) | ORYSAT preemergence herbicidal rating (ORYSAT (Rice, Tebonnet); rate 0.0625 kg/ha) | ORYSAT preemergence herbicidal rating (ORYSAT (Rice, Tebonnet); rate 0.1250 kg/ha)
5.5: CASOB herbicidal rating (CASOB (Sicklepod); rate 0.1250 kg/ha)
0.0: CASOB herbicidal rating (CASOB (Sicklepod); rate 0.0156 kg/ha) | ORYSAT preemergence herbicidal rating (ORYSAT (Rice, Tebonnet); rate 0.0156 kg/ha) | ORYSAT preemergence herbicidal rating (ORYSAT (Rice, Tebonnet); rate 0.0313 kg/ha) | Herbicidal rating SAGPY ([1]; 0.0313 kg/ha) | Herbicidal rating SAGPY ([1]; 0.0625 kg/ha) | GLXMAW preemergence herbicidal rating ([2]; rate 0.0156 kg/ha) | GLXMAW preemergence herbicidal rating ([2]; rate 0.0313 kg/ha) | TRZAWR preemergence herbicidal rating ([3]; rate 0.0156 kg/ha) | TRZAWR preemergence herbicidal rating ([3]; rate 0.0313 kg/ha) | TRZAWR preemergence herbicidal rating ([3]; rate 0.0625 kg/ha)
9.0: Herbicidal rating MOOVA (MOOVA (Monochoria); [4]) | Herbicidal rating MOOVA (MOOVA (Monochoria); [5]) | Herbicidal rating MOOVA (MOOVA (Monochoria); [6]) | Herbicidal rating MOOVA (MOOVA (Monochoria); [7])
0.3: GLXMAW preemergence herbicidal rating ([2]; rate 0.0625 kg/ha) | GLXMAW preemergence herbicidal rating ([2]; rate 0.1250 kg/ha)

CCOC(=O)CN1C(=O)C(CC)SC1=Nc1cc(-n2c(=O)cc(C(F)(F)F)n(C)c2=O)c(F)cc1Cl (stereo not drawn) [Compound 13, Ethyl 2-{{2-chloro-5-[3,6-dihydro-3-methyl-2,6-dioxo-4-(trifluoromethyl)-1(2H)-pyrimidinyl]-4-fluorophenyl}imino}-5-ethyl-4-oxo-3-thiazolidineacetate]
6.0: TRZAWR preemergence herbicidal rating ([3]; rate 0.2500 kg/ha)
4.0: ORYSAT preemergence herbicidal rating (ORYSAT (Rice, Tebonnet); rate 0.2500 kg/ha) | GLXMAW preemergence herbicidal rating ([2]; rate 0.2500 kg/ha) | TRZAWR preemergence herbicidal rating ([3]; rate 0.1250 kg/ha)
3.0: CASOB herbicidal rating (CASOB (Sicklepod); rate 0.0625 kg/ha) | CASOB herbicidal rating (CASOB (Sicklepod); rate 0.1250 kg/ha) | ORYSAT preemergence herbicidal rating (ORYSAT (Rice, Tebonnet); rate 0.1250 kg/ha)
9.0: Herbicidal rating MOOVA (MOOVA (Monochoria); [4]) | Herbicidal rating MOOVA (MOOVA (Monochoria); [5]) | Herbicidal rating MOOVA (MOOVA (Monochoria); [6]) | Herbicidal rating MOOVA (MOOVA (Monochoria); [7])
0.0: CASOB herbicidal rating (CASOB (Sicklepod); rate 0.0156 kg/ha) | CASOB herbicidal rating (CASOB (Sicklepod); rate 0.0313 kg/ha) | ORYSAT preemergence herbicidal rating (ORYSAT (Rice, Tebonnet); rate 0.0156 kg/ha) | ORYSAT preemergence herbicidal rating (ORYSAT (Rice, Tebonnet); rate 0.0313 kg/ha) | ORYSAT preemergence herbicidal rating (ORYSAT (Rice, Tebonnet); rate 0.0625 kg/ha) | Herbicidal rating SAGPY ([1]; 0.0156 kg/ha) | Herbicidal rating SAGPY ([1]; 0.0313 kg/ha) | Herbicidal rating SAGPY ([1]; 0.0625 kg/ha) | Herbicidal rating SAGPY ([1]; 0.1250 kg/ha) | Herbicidal rating SAGPY ([1]; 0.2500 kg/ha) | GLXMAW preemergence herbicidal rating ([2]; rate 0.0156 kg/ha) | GLXMAW preemergence herbicidal rating ([2]; rate 0.0313 kg/ha)
1.0: GLXMAW preemergence herbicidal rating ([2]; rate 0.0625 kg/ha) | TRZAWR preemergence herbicidal rating ([3]; rate 0.0313 kg/ha) | TRZAWR preemergence herbicidal rating ([3]; rate 0.0625 kg/ha)
2.0: GLXMAW preemergence herbicidal rating ([2]; rate 0.1250 kg/ha)

CCOC(=O)CN1C(=O)C(CC(=O)NS(=O)(=O)CC)SC1=Nc1cc(-n2c(=O)cc(C(F)(F)F)n(C)c2=O)c(F)cc1Cl (stereo not drawn) [Compound 103, Ethyl 2-{{2-chloro-5-[3,6-dihydro-3-methyl-2,6-dioxo-4-(trifluoromethyl)-1(2H)-pyrimidinyl]-4-fluorophenyl}imino}-5-{[(ethylsulfonyl)carbamoyl]-methyl}-4-oxo-3-thiazolidineacetate]
7.0: Herbicidal rating MOOVA (MOOVA (Monochoria); [9]) | SAGPY herbicidal effect rating ([1]; 0.0313 kg/ha)
5.0: Herbicidal rating MOOVA (MOOVA (Monochoria); [8])
3.0: herbicidal rating CASOB (CASOB (Sicklepod); rate 0.0313 kg/ha) | herbicidal rating CASOB (CASOB (Sicklepod); rate 0.0625 kg/ha) | herbicidal rating CASOB (CASOB (Sicklepod); rate 0.1250 kg/ha) | GLXMAW rating ([2]; 0.5000 kg/ha)
9.0: Herbicidal rating MOOVA (MOOVA (Monochoria); [10]) | Herbicidal rating MOOVA (MOOVA (Monochoria); [11]) | SAGPY herbicidal effect rating ([1]; 0.0625 kg/ha) | SAGPY herbicidal effect rating ([1]; 0.1250 kg/ha) | SAGPY herbicidal effect rating ([1]; 0.2500 kg/ha)
0.0: herbicidal rating CASOB (CASOB (Sicklepod); rate 0.0156 kg/ha) | ORYSAT rating (ORYSAT (Rice, Tebonnet); 0.0313 kg/ha) | ORYSAT rating (ORYSAT (Rice, Tebonnet); 0.0625 kg/ha) | ORYSAT rating (ORYSAT (Rice, Tebonnet); 0.1250 kg/ha) | ORYSAT rating (ORYSAT (Rice, Tebonnet); 0.2500 kg/ha) | GLXMAW rating ([2]; 0.0313 kg/ha) | GLXMAW rating ([2]; 0.0625 kg/ha) | GLXMAW rating ([2]; 0.1250 kg/ha) | GLXMAW rating ([2]; 0.2500 kg/ha) | TRZAWR rating ([3]; 0.0313 kg/ha) | TRZAWR rating ([3]; 0.0625 kg/ha) | TRZAWR rating ([3]; 0.1250 kg/ha) | TRZAWR rating ([3]; 0.2500 kg/ha)
1.0: TRZAWR rating ([3]; 0.5000 kg/ha)
2.0: ORYSAT rating (ORYSAT (Rice, Tebonnet); 0.5000 kg/ha)

CCOC(=O)CN1C(=O)C(CC(=O)OC(C)C(=O)OCC)S/C1=N/c1cc(-n2c(=O)cc(C(F)(F)F)n(C)c2=O)c(F)cc1Cl (stereo not drawn) [Compound 87]
4.0: SAGPY herbicidal effect rating ([1]; 0.0625 kg/ha) | SAGPY herbicidal effect rating ([1]; 0.1250 kg/ha) | GLXMAW rating ([2]; 0.2500 kg/ha)
2.0: CASOB herbicidal rating (CASOB (Sicklepod); rate 0.1250 kg/ha)
9.0: CASOB herbicidal rating (CASOB (Sicklepod); rate 0.2500 kg/ha) | Herbicidal rating MOOVA (MOOVA (Monochoria); [8]) | Herbicidal rating MOOVA (MOOVA (Monochoria); [9]) | Herbicidal rating MOOVA (MOOVA (Monochoria); [10]) | Herbicidal rating MOOVA (MOOVA (Monochoria); [11]) | Herbicidal rating MOOVA (MOOVA (Monochoria); Rate 0.5000 kg/ha, rated 3 to 4 weeks after treatment)
1.0: TRZAWR rating ([3]; 0.5000 kg/ha)
0.0: CASOB herbicidal rating (CASOB (Sicklepod); rate 0.0156 kg/ha) | CASOB herbicidal rating (CASOB (Sicklepod); rate 0.0313 kg/ha) | CASOB herbicidal rating (CASOB (Sicklepod); rate 0.0625 kg/ha) | ORYSAT rating (ORYSAT (Rice, Tebonnet); 0.1250 kg/ha) | ORYSAT rating (ORYSAT (Rice, Tebonnet); 0.2500 kg/ha) | ORYSAT rating (ORYSAT (Rice, Tebonnet); 0.5000 kg/ha) | SAGPY herbicidal effect rating ([1]; 0.0313 kg/ha) | GLXMAW rating ([2]; 0.1250 kg/ha) | TRZAWR rating ([3]; 0.1250 kg/ha) | TRZAWR rating ([3]; 0.2500 kg/ha)
7.0: SAGPY herbicidal effect rating ([1]; 0.5000 kg/ha)
5.0: SAGPY herbicidal effect rating ([1]; 0.2500 kg/ha) | GLXMAW rating ([2]; 0.5000 kg/ha)

C=CCN1C(=O)C(CC(=O)NOC)SC1=Nc1cc(-n2c(=O)cc(C(F)(F)F)n(C)c2=O)c(F)cc1Cl (stereo not drawn) [Compound 85]
5.0: TRZAWR rating ([3]; 0.2500 kg/ha)
0.0: CASOB herbicidal rating (CASOB (Sicklepod); rate 0.0156 kg/ha) | CASOB herbicidal rating (CASOB (Sicklepod); rate 0.0313 kg/ha) | CASOB herbicidal rating (CASOB (Sicklepod); rate 0.0625 kg/ha) | ORYSAT rating (ORYSAT (Rice, Tebonnet); 0.0156 kg/ha) | ORYSAT rating (ORYSAT (Rice, Tebonnet); 0.0313 kg/ha) | ORYSAT rating (ORYSAT (Rice, Tebonnet); 0.0625 kg/ha) | ORYSAT rating (ORYSAT (Rice, Tebonnet); 0.1250 kg/ha) | GLXMAW rating ([2]; 0.0156 kg/ha) | GLXMAW rating ([2]; 0.0313 kg/ha) | GLXMAW rating ([2]; 0.0625 kg/ha) | TRZAWR rating ([3]; 0.0156 kg/ha) | TRZAWR rating ([3]; 0.0313 kg/ha) | TRZAWR rating ([3]; 0.0625 kg/ha)
2.0: CASOB herbicidal rating (CASOB (Sicklepod); rate 0.1250 kg/ha) | ORYSAT rating (ORYSAT (Rice, Tebonnet); 0.2500 kg/ha) | GLXMAW rating ([2]; 0.1250 kg/ha) | GLXMAW rating ([2]; 0.2500 kg/ha)
9.0: Herbicidal rating MOOVA (MOOVA (Monochoria); [8]) | Herbicidal rating MOOVA (MOOVA (Monochoria); [9]) | Herbicidal rating MOOVA (MOOVA (Monochoria); [10]) | Herbicidal rating MOOVA (MOOVA (Monochoria); [11]) | SAGPY herbicidal effect rating ([1]; 0.1250 kg/ha) | SAGPY herbicidal effect rating ([1]; 0.2500 kg/ha) | GLXMAW rating ([2]; 0.5000 kg/ha)
8.0: TRZAWR rating ([3]; 0.5000 kg/ha)
3.0: ORYSAT rating (ORYSAT (Rice, Tebonnet); 0.5000 kg/ha) | SAGPY herbicidal effect rating ([1]; 0.0313 kg/ha) | SAGPY herbicidal effect rating ([1]; 0.0625 kg/ha) | TRZAWR rating ([3]; 0.1250 kg/ha)
